Patent publication US10544130B2, “Metallo-beta-lactamase inhibitors” (priority 2015, dated 2020)

test system: Pseudomonas aeruginosa PAO1 MB9798 (efflux+, IMP-1); conditions: ratio MITC95 PA 9798/MITC95 PA 9799; imipenem at 2 μg/mL
How it was run: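 Isogenic PAO1 pair (efflux+ MB9798, efflux− MB9799, both IMP-1) tested by microbroth MIC with fixed imipenem and/or ceftazidime, usually at CLSI breakpoint, plus fixed class A/C inhibitor against AmpC. MBL inhibitor titrated; concentration restoring susceptibility recorded and fold difference between strains taken as efflux extent.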

Q: With `CN1CCN(S(=O)(=O)c2ccc(-c3cccc4sc(N)nc34)c(-c3nnn[nH]3)c2S(N)(=O)=O)CC1` [Example 27, 3-(2-amino-1,3-benzothiazol-4-yl)-6-[(4-methylpiperazin-1-yl)sulfonyl]-2-(1H-tetrazol-5-yl)benzenesulfonamide] as the compound, how does the Efflux ratio read?
A: 2.00

Q: With `Nc1nc2c(-c3ccc(S(=O)(=O)N4CC[S+]([O-])CC4)c(S(N)(=O)=O)c3-c3nnn[nH]3)cccc2s1` [Example 44, 3-(2-amino-1,3-benzothiazol-4-yl)-6-[(1-oxidothiomorpholin-4-yl)sulfonyl]-2-(1H-tetrazol-5-yl)benzenesulfonamide] as the compound, how does the Efflux ratio read?
A: 2.00

Q: For `CN1CC[C@H](CNS(=O)(=O)c2ccc(-c3cccc4sc(N)nc34)c(-c3nnn[nH]3)c2S(N)(=O)=O)C1` [Example 77, 4-(2-amino-1,3-benzothiazol-4-yl)-N1-{[(3S)-1-methylpyrrolidin-3-yl]methyl}-3-(1H-tetrazol-5-yl)benzene-1,2-disulfonamide], which Efflux ratio is on record?
A: 0.50

Q: With `Nc1nc2c(-c3ccc(S(=O)(=O)N[C@@H]4CNC[C@H]4O)c(S(N)(=O)=O)c3-c3nnn[nH]3)cccc2[nH]1` [Example 171, 4-(2-amino-1H-benzo[d]imidazol-4-yl)-N^1-((3R,4R)-4-hydroxypyrrolidin-3-yl)-3-(1H-tetrazol-5-yl)benzene-1,2-disulfonamide] as the compound, how does the Efflux ratio read?
A: 0.50

Q: How did the Efflux ratio turn out when `Nc1nc2c(-c3ccc(S(=O)(=O)NCCO)c(S(N)(=O)=O)c3-c3nn[nH]n3)cccc2s1` [Example 144, 4-(2-aminobenzo[d]thiazol-4-yl)-N1-(2-hydroxyethyl)-3-(2H-tetrazol-5-yl)benzene-1,2-disulfonamide] was run?
A: 1.00

Q: How did the Efflux ratio turn out when `Nc1nc2c(-c3ccc(S(=O)(=O)NC[C@@H]4CCNC4)c(S(N)(=O)=O)c3-c3nnn[nH]3)cccc2s1` [Example 75, 4-(2-amino-1,3-benzothiazol-4-yl)-N^1-[(3R)-pyrrolidin-3-ylmethyl]-3-(1H-tetrazol-5-yl)benzene-1,2-disulfonamide] was run?
A: 1.00

Q: How did the Efflux ratio turn out when `Nc1nc2c(-c3ccc(S(=O)(=O)N[C@@H]4CN[C@@H](CO)C4)c(S(N)(=O)=O)c3-c3nnn[nH]3)cccc2s1` [Example 79, 4-(2-amino-1,3-benzothiazol-4-yl)-N1-[(3S,5R)-5-(hydroxymethyl)pyrrolidin-3-yl]-3-(1H-tetrazol-5-yl)benzene-1,2-disulfonamide] was run?
A: 0.50

Q: How did the Efflux ratio turn out when `CCC1(NS(=O)(=O)c2ccc(-c3cccc4sc(N)nc34)c(-c3nnn[nH]3)c2S(N)(=O)=O)CCNC1` (stereo not drawn) [Example 56, 4-(2-amino-1,3-benzothiazol-4-yl)-N1-(3-ethylpyrrolidin-3-yl)-3-(1H-tetrazol-5-yl)benzene-1,2-disulfonamide] was run?
A: 1.00

Q: With `NCCNC(=O)c1cccc(-c2ccc(S(=O)(=O)NCCN)c(S(N)(=O)=O)c2-c2nn[nH]n2)c1N` [Example 204, 2-amino-N-(2-aminoethyl)-4′-(N-(2-aminoethyl)sulfamoyl)-5′-sulfamoyl-6′-(2H-tetrazol-5-yl)biphenyl-3-carboxamide] as the compound, how does the Efflux ratio read?
A: 1.00

Q: `Nc1nc2c(-c3ccc(S(=O)(=O)NCc4ccccn4)c(S(N)(=O)=O)c3-c3nnn[nH]3)cccc2s1.O=C(O)C(F)(F)F` [Example 106, 2-((4-(2-aminobenzo[d]thiazol-4-yl)-2-sulfamoyl-3-(1H-tetrazol-5-yl)phenylsulfonamido)methyl)pyridin-1-ium 2,2,2-trifluoroacetate] was tested. Which Efflux ratio did it give?
A: 4.00

Q: `Nc1nc2c(-c3ccc(S(=O)(=O)NC4CCc5nccn5C4)c(S(N)(=O)=O)c3-c3nnn[nH]3)cccc2s1` (stereo not drawn) [Example 35, 4-(2-amino-1,3-benzothiazol-4-yl)-N1-(5,6,7,8-tetrahydroimidazo[1,2-a]pyridin-6-yl)-3-(1H-tetrazol-5-yl)benzene-1,2-disulfonamide] was tested. Which Efflux ratio did it give?
A: 2.00

Q: How did the Efflux ratio turn out when `NC[C@H](N)CNS(=O)(=O)c1ccc(-c2cccc3ccc(N)nc23)c(-c2nn[nH]n2)c1S(N)(=O)=O` [Example 371, (S)-4-(2-aminoquinolin-8-yl)-N1-(2,3-diaminopropyl)-3-(2H-tetrazol-5-yl)benzene-1,2-disulfonamide] was run?
A: 1.00

Q: With `Nc1nc2c(-c3ccc(S(=O)(=O)N4CCC(N)CC4)c(S(N)(=O)=O)c3-c3nn[nH]n3)cccc2s1` [Example 148, 3-(2-aminobenzo[d]thiazol-4-yl)-6-((4-aminopiperidin-1-yl)sulfonyl)-2-(2H-tetrazol-5-yl)benzenesulfonamide] as the compound, how does the Efflux ratio read?
A: 2.00

Q: How did the Efflux ratio turn out when `Nc1nc2c(-c3ccc(S(=O)(=O)N[C@H]4CO[C@H]5[C@@H]4OC[C@H]5N)c(S(N)(=O)=O)c3-c3nnn[nH]3)cccc2s1.O=C(O)C(F)(F)F` [Example 103, (3R,3aR,6S,6aR)-6-(4-(2-aminobenzo[d]thiazol-4-yl)-2-sulfamoyl-3-(1H-tetrazol-5-yl)phenylsulfonamido) hexahydrofuro[3,2-b] furan-3-aminium 2,2,2-trifluoroacetate] was run?
A: 2.00

Q: Which Efflux ratio does the source give for `Nc1nc2c(-c3ccc(S(=O)(=O)N[C@H]4CNC[C@H]4O)c(S(N)(=O)=O)c3-c3nnn[nH]3)cccc2[nH]1` [Example 168, 4-(2-amino-1H-benzo[d]imidazol-4-yl)-N^1-((3S,4R)-4-hydroxypyrrolidin-3-yl)-3-(1H-tetrazol-5-yl)benzene-1,2-disulfonamide] here?
A: 0.70

Q: With `Nc1nc2c(-c3ccc(S(=O)(=O)NC[C@H](N)CO)c(S(N)(=O)=O)c3-c3nn[nH]n3)cccc2[nH]1` [Example 191, 4-(2-amino-1H-benzo[d]imidazol-4-yl)-N^1—((S)-2-amino-3-hydroxypropyl)-3-(2H-tetrazol-5-yl)benzene-1,2-disulfonamide] as the compound, how does the Efflux ratio read?
A: 1.00

test system: Serratia marcescens expressing IMP-1 (CL5741); format: cell-based; conditions: with imipenem 1 μg/ml; 95% inhibition of bacterial growth
Method: Antibiotic Potentiation Activity: Determination of Synergistic Concentration
The bacterial strains tested included the clinical strains Escherichia coli expressing NDM-1 (CLB30005, CLB30016), Serratia marcescens expressing IMP-1 (CL5741), and Klebsiella pneumoniae expressing VIM-1 (IHMA599644). Inhibitor activity was measured in the presence and absence of imipenem in a 384-well microplate.
The clinical strains CLB30016, CL5741 and IHMA599644 were grown on trypticase soy agar containing 5% sheep's blood. The bacteria on agar plates were incubated at 35° C. with humidity overnight. The following day, individual colonies from each clinical strain were picked and resuspended in 5 ml saline to attain an OD600 of 0.14, 0.11, 0.15 and 0.13, for CLB30016, CL5741 and IHMA599644, respectively. These were further diluted 1:100 into 1.1× CAMHB and used to inoculate the test wells as described below.
Imipenem in 10 mM 3-(N-morpholino)propanesulfonic acid (MOPS, pH 7) was stored in single use aliquots at −80° C. […] On the day of the assay, 4 μl of antibiotic was added to 45 ul of bacteria followed by 1 μl of test compound and mixed by pipetting and with an orbital shaker. The concentration of antibiotic used in the assay was 1 μg/ml. Microplates were covered and incubated at 35° C. for 22 hours to 24 hours. At the end of the incubation, absorbance was determined using a spectrophotometer.

Q: How did the “Serratia marcescens (IMP-1) MITC95” value turn out when `C[C@@H](CN)NS(=O)(=O)c1ccc(-c2cc(F)cc3[nH]c(N)nc23)c(-c2nn[nH]n2)c1S(N)(=O)=O` [Example 397, (S)-4-(2-amino-6-fluoro-1H-benzo[d]imidazol-4-yl)-N^1-(1-aminopropan-2-yl)-3-(2H-tetrazol-5-yl)benzene-1,2-disulfonamide] was run?
A: 0.7813 µM

Q: With `NC[C@@H](N)CNS(=O)(=O)c1ccc(-c2ccc(N)nc2)c(-c2nn[nH]n2)c1S(N)(=O)=O` [Example 416, (R)-4-(6-aminopyridin-3-yl)-N^1-(2,3-diaminopropyl)-3-(2H-tetrazol-5-yl)benzene-1,2-disulfonamide] as the compound, how does the “Serratia marcescens (IMP-1) MITC95” value read?
A: 1.563 µM

Q: `C[C@@H](N)CNS(=O)(=O)c1ccc(-c2ccc3nccn3c2)c(-c2nn[nH]n2)c1S(N)(=O)=O` [Example 423, (R)-N^1-(2-aminopropyl)-4-(imidazo[1,2-a]pyridin-6-yl)-3-(2H-tetrazol-5-yl)benzene-1,2-disulfonamide] was tested. Which “Serratia marcescens (IMP-1) MITC95” value did it give?
A: 0.7813 µM

Q: `NCCNS(=O)(=O)c1ccc(-c2ccc3sc(CN)nc3c2)c(-c2nn[nH]n2)c1S(N)(=O)=O` [Example 476, N1-(2-aminoethyl)-4-(2-(aminomethyl)benzo[d]thiazol-5-yl)-3-(2H-tetrazol-5-yl)benzene-1,2-disulfonamide] was tested. Which “Serratia marcescens (IMP-1) MITC95” value did it give?
A: 0.7813 µM

Q: Which “Serratia marcescens (IMP-1) MITC95” value does the source give for `Nc1nc(-c2cccc(-c3ccc(S(=O)(=O)N[C@@H]4CCNC4)c(S(N)(=O)=O)c3-c3nn[nH]n3)c2)c[nH]1` [Example 428, (R)-3′-(2-amino-1H-imidazol-4-yl)-N^4-(pyrrolidin-3-yl)-2-(2H-tetrazol-5-yl)-[1,1′-biphenyl]-3,4-disulfonamide] here?
A: 0.7813 µM
